One may read the IC50 as the concentration at which inhibition is half-maximal.

Where two headings read alike, the source gives them in different places.

Here are results for two molecules from US20260335282A1, “NOVEL 3-ARYLIDENE-2-INDOLINONE DERIVATIVES FOR THERAPEUTIC USE” (ISTANBUL UNIVERSITESI REKTORLUGU, priority 2022, published 2026).

In assay [1] the test system is MIAPaCa-2 cells. Nature of the assay: Apoptosis/necrosis detection, Annexin V/PI flow cytometry, MiaPaca-2. In kind it is cell-based, human. On the procedure: (§1) After incubation with 2-indolinone compounds (IC50 μM concentration; 48 and/or 72 hours), cells are washed twice with PBS and the cell pellet is suspended in Annexin V binding buffer. After this incubation, cells are incubated with FITC-conjugated Annexin V and propidium iodine staining solution for 15 minutes in the dark and at room temperature. Then, cells are analyzed by flow cytometry (Beckman coulter, Navios) (Wlodkowic, D., Skommer, J, Darzynkiewicz, Z. 2009. Flow cytometry-based apoptosis detection, Methods Mol Biol., 559, 1-14).

The next assay has as its system HCT-116 cells. Put plainly: MTT cytotoxicity, colon cancer cells HCT-116. In kind it is cell-based, human. The method in brief: (§2)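 Cells were seeded at 5000 per well and treated next day with compound at 0.1, 1, 5 and 10 μM (final) for 48 and/or 72 h, with matched DMSO controls. MTT was added for 4 h and formazan was dissolved in DMSO and read at 570/630 nm. % viability against control gave IC50 from dose-response curves.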

In another assay the test system is MDA-MB-231 cells. Put plainly: MTT cytotoxicity, breast cancer cells MDA-MB-231. In kind it is cell-based, human. The settings on record: MTT, no * mark (incubation time not given). The method in brief: (§3)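 Healthy HUVEC cells grew in DMEM, cancer lines in RPMI-1640 or DMEM with 10% FBS. After overnight attachment, compounds (0.1, 1, 5, 10 μM) act for 48 and/or 72 h before a 4 h MTT step and 570/630 nm reading; IC50 is taken from dose-response curves.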

The subject of assay [2] is A498 cells. Put plainly: Apoptosis/necrosis detection, Annexin V/PI flow cytometry, A498. The assay is classed as cell-based, human. Particulars: A498. The procedure:
as §1
(In general: In flow cytometry, cells or beads pass a laser one at a time.)

The test system of another assay is HT-29 cells. Put plainly: MTT cytotoxicity, colon cancer cells HT-29. In kind it is cell-based, human. The settings on record: for IC50: MTT. The method in brief:
as §2

In another assay the test system is MCF-7 cells. Nature of the assay: MTT cytotoxicity, breast cancer cells MCF-7. The settings on record: MTT. In kind it is cell-based, human. The method in brief:
as §3

Assay [3] has as its system A498 cells. Put plainly: MTT cytotoxicity, kidney cancer cells A498. Particulars: MTT. The assay is classed as cell-based, human. The gist of the method:
as §3

The next assay has as its system A549 cells. Put plainly: MTT cytotoxicity, lung cancer cells A549. In kind it is cell-based, human. The gist of the method:
as §3

Another assay has as its system HUVEC cells. Put plainly: MTT cytotoxicity, healthy cells HUVEC. In kind it is cell-based, human. Particulars: for IC50: MTT. The method in brief:
as §3

Assay [4] deals with MIAPaCa-2 cells. Put plainly: MTT cytotoxicity, pancreas cancer cells MIAPaCa-2. The assay is classed as cell-based, human. The method in brief:
as §2

The next assay relates to CAKI-1 cells. Nature of the assay: MTT cytotoxicity, kidney cancer cells CAKI-1. In kind it is cell-based, human. The method in brief: as §3
The subject of another assay is human cancer cells. Nature of the assay: MTT cell viability, human cancer cells overall. The assay is classed as cell-based. The settings on record: cell line as discussed at the place. The text has this:
The cytotoxicity, general tyrosine kinase inhibitory effects and cell death (apoptosis/necrosis) assays of 1-benzyl-3-(1H-indol-3-ylmethylidene)-1,3-dihydro-2H-indol-2-one derivatives (Formula 5) of the present invention are studied by the following methods. […] HUVEC (human umbilical vein endothelial cell), MCF-10F (human breast epithelial cell) and Beas2b (human lung bronchial epithelial cell) cell lines have been used as healthy control cells in MTT experiments.
Beas2b (human lung bronchiole epithelial cell) and HEK293 (renal tubule epithelium) cells used as normal cell lines were cultured in RPMI medium, and HUVEC (human umbilical cord endothelial cells) and MCF-10F (human breast epithelial cell) cells are cultured in DMEM medium containing 100 µg/ml penicillin/streptomycin. The cells, which covered 70% of the culture flask, are washed with phosphate buffer and then removed from the surface of the flask by application of trypsin-ethylenediamine tetraacetic acid (Trypsin-EDTA; 0.25%) solution, passaged, counted and seeded on appropriate plates before each experiment. Cells are treated with a total of 45 2-indolinone compounds (5) at concentrations of 0.1, 1, 5 and 10 μM. Stock compounds are prepared in 1 ml dimethylsulfoxide (DMSO) and 4 different dilutions were prepared with medium and performed to the cells. Control group cells are treated with DMSO at a similar concentration to the experimental groups.
MTT (3-(4,5-dimethylthiazol-2-yl)-2,5-diphenyl-2H-tetrazolium bromide) colorimetric assay provides quantitation of viable cells with ongoing mitochondrial activity in culture medium. According to the standard procedure in cell culture conditions, cells are maintained in RPMI-1640 and DMEM culture media containing 10% FBS and 1% penicillin/streptomycin. The trypan blue test is used for cell counts.
The effects of 45 2-indolinone compounds (5) on cell viability in all cancer cell lines are investigated by MTT assay. Cells are seeded in a 96-well flat bottom plate with 5000 cells in each well and 2-indolinone compounds (5) at concentrations of 0.1, 1, 5 and 10 μM are performed to the cells the next day. After 48 and/or 72 hours following treatment with 2-indolinone compounds, 50 μl of the supernatant is slowly discarded (as it was acid medium) and MTT at a concentration of 5 mg/ml is added to each well in a volume of 10 μl. After incubation for 4 hours, the formazan crystals formed in the wells are dissolved by adding 100 μl DMSO and the optical density is read at 570 nm test wavelength and 630 nm reference wavelength. Cell viability is expressed as % cell viability by comparing the absorbance of control and test wells. IC50 value is calculated from the dose-response curves prepared for each compound. In addition, the possible DMSO effect is eliminated by preparing negative control wells compatible with the amount of DMSO contained in the compounds. To understand the reaction of the compounds with MTT, cell-free (MTT+compounds) negative controls are prepared at the concentrations used (Mosmann, 1983). […] The absorbance values obtained are compared to the control and statistically evaluated by unpaired t-test using “Graphpad Prism 5.04” software. “P<0.05” is accepted as significant. When evaluating cytotoxic effects, the present inventors aim for the inventive compounds to be effective in cancer cells and ineffective in healthy cells. […]

Another assay relates to MCF-10F/Beas2b cells. Put plainly: MTT cytotoxicity, healthy cells MCF-10F/Beas2b. In kind it is cell-based, human. Particulars: MCF-10F/Beas2b vs colon or pancreas cancer cells; cancer line not given. The method in brief:
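Read-out is MTT formazan absorbance at 570 nm with 630 nm reference, after 4 h with 5 mg/ml MTT and DMSO solubilisation. Treatment at 0.1, 1, 5 and 10 μM lasted 48 and/or 72 h; viability is relative to DMSO-matched controls, and IC50 values derive from dose-response curves.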

Setting [5] is: no * mark (incubation time not specified).
Where [6] appears, read: MTT, no * mark (incubation time not specified).

Consider `CCN(CC)CCNC(=O)c1c(C)[nH]c(/C=C2\C(=O)Nc3ccc(F)cc32)c1C` [Sunitinib malate, reference compound], for which the entries for the “necrosis compared to control” value in the assay on MIAPaCa-2 cells [1] (MiaPaca-2) and with A498 cells [2] were “did not cause necrosis” and “no increase or decrease”, respectively. Moreover, the “apoptosis (early and late) compared to control” value with MIAPaCa-2 cells [1] (MiaPaca-2, IC50 values) is “increase in apoptosis at IC50 values was statistically significant”. The IC50 was 1.78 µM with HCT-116 cells (Homo sapiens, HCT-116, no * mark (incubation time not given)); more than 10 µM with MDA-MB-231 cells (Homo sapiens, MDA-MB-231, read-out: IC50, MDA-MB-231 (breast)); 2.94 µM with HT-29 cells (Homo sapiens, HT-29, no * mark (incubation time not given)); 9.78 µM in the assay on MCF-7 cells (Homo sapiens, MCF7, no * mark (incubation time not given)); 3.46 µM with A498 cells [3] (Homo sapiens, A498, 72 h, *: effective 72 hours after incubation); 3.71 µM in the assay on A498 cells [3] (setting [5]). For the same molecule, the IC50 in the assay on A498 cells [3] (no * mark (incubation time not specified), listed as sunitinib malate) is more than 10 µM; in the assay with A549 cells (Homo sapiens, A549, no * mark (incubation time not given)) it was more than 10 µM; in the assay with HUVEC cells (Homo sapiens, HUVEC, no * mark (incubation time not given)) it was 2.94 µM; in the assay with MIAPaCa-2 cells [4] (Homo sapiens, MIA PaCa-2, 72 h, MTT, *: effective 72 hours after incubation), 4.03 µM; in the assay on MIAPaCa-2 cells [4] (Homo sapiens, MIA PaCa-2, MTT, no * mark (incubation time not given)), 0.61 µM; in the assay on MIAPaCa-2 cells [4] (setting [6]), 1.18 µM. This molecule registered an IC50 with CAKI-1 cells (Homo sapiens, CAKI-1, no * mark (incubation time not given)) of 5.13 µM. Also, the “viability, early apoptosis and late apoptosis compared to control” value in the assay with A498 cells [2] (Y3 at IC50, sunitinib malate 10 μM) is on record as 10 μM dose is found to be the most significant.

For the molecule `O=C1/C(=C\c2c[nH]c3ccccc23)c2ccccc2N1Cc1cccc(F)c1` [51C], the IC50 in the assay on HCT-116 cells (setting [5]) was 1.13 µM; in the assay with MDA-MB-231 cells (read-out: IC50, MDA-MB-231 (breast)), more than 10 µM; in the assay with HT-29 cells (setting [5]), 0.93 µM; in the assay on MCF-7 cells (setting [5]), more than 10 µM; in the assay on A498 cells [3] (setting [5]), 6.22 µM; in the assay with A549 cells (setting [5]) it was more than 10 µM. The figures for the IC50 in the assay with HUVEC cells (setting [5]), in the assay on MIAPaCa-2 cells [4] (setting [6]) and in the assay on CAKI-1 cells (setting [5]) were 5.7 µM, 5.2 µM and more than 10 µM, respectively. In addition, the “potency/selectivity compared with sunitinib malate” value with human cancer cells is “more potent and selective than Sunitinib malate”. Also, the selectivity index with HT-29 cells (MCF-10F/Beas2b vs HT-29) is on record as more than 11. In addition, in the assay on HUVEC cells (HUVEC vs colon or pancreas cancer cells, cancer line not given), the “Selectivite Index, HUVEC (Table 2)” value is 6.13. Further, in the assay with MCF-10F/Beas2b cells, the “Selectivite Index, MCF-10F/Beas2b (Table 2)” value is reported as more than 10.75.
